Consider one molecule from patent US8044045B2, “Indazole-carboxamide compounds as 5-HT4 receptor agonists” (Theravance, Inc., priority 2004, dated 2011).

A short description of the series: Pharmacokinetic study in the rat. In kind it is in vivo. The method, then:
Aqueous solution formulations of test compounds were prepared in 0.1% lactic acid at a pH of between about 5 and about 6. Male Sprague-Dawley rats (CD strain, Charles River Laboratories, Wilmington, Mass.) were dosed with test compounds via intravenous administration (IV) at a dose of 2.5 mg/kg or by oral gavage (PO) at a dose of 5 mg/kg. The dosing volume was 1 mL/kg for IV and 2 mL/kg for PO administration. Serial blood samples were collected from animals pre-dose, and at 2 (IV only), 5, 15, and 30 min, and at 1, 2, 4, 8, and 24 hours post-dose. Concentrations of test compounds in blood plasma were determined by liquid chromatography-mass spectrometry analysis (LC-MS/MS) (MDS SCIEX, API 4000, Applied Biosystems, Foster City, Calif.) with a lower limit of quantitation of 1 ng/mL.
Standard pharmacokinetic parameters were assessed by non-compartmental analysis (Model 201 for IV and Model 200 for PO) using WinNonlin (Version 4.0.1, Pharsight, Mountain View, Calif.). The maximum in the curve of test compound concentration in blood plasma vs. time is denoted Cmax. The area under the concentration vs. time curve from the time of dosing to the last measurable concentration (AUC(0-t)) was calculated by the linear trapezoidal rule. Oral bioavailability (F(%)), i.e. the dose-normalized ratio of AUC(0-t) for PO administration to AUC(0-t) for IV administration, was calculated as: F(%)=AUCPO/AUCIV×DoseIV/DosePO×100%

Where [1] appears, read: male Sprague-Dawley rats, blood plasma, PO 5 mg/kg.

`CC(=O)N1CCN(CCN2[C@@H]3CC[C@H]2CC(NC(=O)c2nn(C(C)C)c4ccccc24)C3)CC1` (stereo partly drawn) [Example 1, 1-isopropyl-1H-indazole-3-carboxylic acid {(1S,3R,5R)-8-[2-(4-acetylpiperazin-1-yl)ethyl]-8-azabicyclo[3.2.1]oct-3-yl}amide]: under setting [1], the “AUC(0-t)” value worked out at 730 ng·h/mL and the Cmax came to 250 ng/mL. Also, the “oral bioavailability (F(%))” value (rat, PO 5 mg/kg versus IV 2.5 mg/kg, dose-normalized AUC(0-t) ratio) was “about 100%”.
